Consider five compounds from US6251897A, “6-phenyltetrahydro-1,3-oxazin-2-one derivative and pharmaceutical composition containing the same” (Nikken Chemicals Co., LTD, priority 1996, dated 2001).

In general, IC50 refers to the midpoint of a concentration-inhibition curve. Usually ED50 stands for the midpoint of the dose-response relation.

One experiment concerns Type IV PDE. Put plainly: PDE inhibitory activity, type IV isozyme (3H-cAMP hydrolysis). The class given is biochemical. As to conditions: partially purified from rat neutrophils, 30° C., 30 minutes. In short, it runs like this:
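Enzyme partially purified from rat neutrophils by ion-exchange chromatography. Reaction in 50 mM Tris-HCl with 5 mM MgCl2, 30 min at 30° C, stopped by boiling; product converted by 5'-nucleotidase and 3H-adenosine counted after ion-exchange separation. IC50 given in M.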

Experiment [1] deals with antigen-induced bronchospasm in guinea pig. Put plainly: Inhibitory effect on antigen-induced bronchospasm (Konzett-Roessler, ovalbumin-sensitized). In kind it is in vivo, guinea pig (Hartley male). Conditions: Cavia porcellus; intravenous, 10 minutes before antigen (0.2 mg/kg OA i.v.); read-out: Action for suppressing antigen-induced bronchospasms ED50. Here is the method:
A Hartley male guinea pig was sensitized by intramuscular administration of […] Ovalbumin (OA) on first day and fourth day, and used after 24th day. A trachial canula was introduced in the guinea pig anesthetized with pentobarbital and artificial ventilation was performed 25 to 29 days after the first sensitization. The overflow of the ventilation was measured by the Konzett-Roessler method while 0.2 mg/kg OA were administered intravenously. The test compound was dissolved in polyethylene glycol 400 and intravenously administered 10 minutes before administration of the antigens.

The next experiment has as its system rat neutrophils. In words: Inhibition of super oxide anion release from rat neutrophils (A23187-stimulated chemiluminescence). The class given is cell-based, rat (Wister). As to conditions: Neutrophil, stimulated with 0.3 μM calcium ionophore A23187, read-out: Inhibitory action of super oxide anion release from rat neutrophils IC50. Here is the method:
The release of super oxide anions was measured so as to study the inhibitory effects of the compound on inflammatory leukocytes, that is, neutrophils.
Blood sample was obtained from Wister rats anesthetized with ether. It was superposed on a blood cell separation solution (Polymorphoprep 1.113, made by Naicomet Co. (phonetic)) and the neutrophils were separated by centrifugation. The neutrophils were resuspended in a Hank's balanced salt solution at a concentration of 0.5×10^4 cell/ml. 0.1 mM of Lusigenin and the test substance dissolved in DMSO were added to 2 ml of the cell-suspension. The chemiluminescence generated by stimulation of 0.3 μM calcium ionophore A23187 was measured by a chemiluminescence reader so as to evaluate the release of super oxide anions.

For the compound `COc1ccc(C2CCNC(=O)O2)cc1OC1CCCC1` (centres unmarked) [Compound No. 2, 6-(3-cyclopentyloxy-4-methoxyphenyl)-3,4,5,6-tetrahydro-2H-1,3-oxazin-2-one], the IC50 in the experiment with Type IV PDE is 1200 nM; in the experiment on rat neutrophils it was 550 nM. Also, the ED50 in experiment [1] came to 0.23 mg/kg.
On to `COc1ccc(C2(C)CCNC(=O)O2)cc1OC` (centres unmarked) [Compound No. 5, 6-(3,4-dimethoxyphenyl)-6-methyl-3,4,5,6-tetrahydro-2H-1,3-oxazin-2-one], for which the IC50 came out at 6800 nM in the experiment on Type IV PDE and 2400 nM with rat neutrophils. Also, the ED50 in experiment [1] is 0.3 mg/kg.
With `COc1ccc(C2CCN(Cc3ccccc3)C(=O)O2)cc1OC` (centres unmarked) [Compound No. 9, 3-benzyl-6-(3 4-dimethoxyphenyl)-3,4,5,6-tetrahydro-2H-1,3-oxazin-2-one], the results for the IC50 in the experiment on Type IV PDE and with rat neutrophils were 22000 nM and 2300 nM, respectively.
`COc1ccc(C2CCN(C)C(=O)O2)cc1OC1CCCC1` (centres unmarked) [Compound No. 10, 6-(3-Cyclopentyloxy-4-methoxyphenyl)-3-methyl-3,4,5,6-tetrahydro-2H-1,3-oxazin-2-one]: the half-maximal inhibitory concentration (IC50) with Type IV PDE is 1300 nM; with rat neutrophils, 90 nM. Besides, the ED50 in experiment [1] amounted to 0.95 mg/kg.
For `COc1ccc(C2CCN(Cc3ccc(Br)cc3)C(=O)O2)cc1OC1CCCC1` (centres unmarked) [Compound No. 11, 3-(4-bromobenzyl)-6-(3-cyclopentyloxy-4-methoxyphenyl)-3,4,5,6-tetrahydro-2H-1,3-oxazin-2-one] the same measures were 1400 nM, 50 nM and 3.1 mg/kg.
